Measured values taken from paper PMC9450014, “The evaluation of ADME and pharmacokinetic properties of decoquinate derivatives for the treatment of malaria” (Frontiers in Pharmacology, 2022).

Assays:
[1] = test system: multidrug resistant Pf K1; set-up: method as in Beteck et al., 2018; conditions: ref Beteck et al., 2018; read-out: IC50 against multidrug resistant Pf K1; cited from earlier work
[2] = In vivo pharmacokinetics, intravenous administration; set-up: species or system C57BL/6 mice; conditions: C57BL/6, mouse, iv, mice, whole blood, dosed compound measured
Protocol: Healthy C57BL/6 mice each weighing approximately 25 g were maintained at the University of Cape Town animal facility. Mice were housed in 27 × 21 × 28 cm cages (n = 3) under controlled environmental conditions at 22 ± 2°C, humidity of 55 ± 15% and a 12-hour light/dark cycle. Food and water were available ad libitum. Mice were acclimatised to the experimental environment for 4–5 days prior to initiating the experiments. […] The total volume of administration was 80 μL. Blood samples were collected post-dose in lithium heparin microvials via tail bleeding at predetermined intervals at 0.16, 0.5, 1, 3, 5, 8, 10, and 24 h. Samples were gently vortexed and stored at −80°C until analysis. A quantitative LC-MS/MS assay was used to determine whole-blood concentrations of RMB005, −059 and −060. Whole blood samples (20 μL) were treated with 100 μL ice cold acetonitrile containing the compound RMB073 used previously for determination of whole blood concentrations in analysis of TB-active compounds, as internal standard (200 ng/ml) ([Tanner et al., 2019]). The mixture was vortexed vigorously for 1 min, and 5 µL of the supernatant were injected onto the analytical column following centrifugation (5,590 g for 5 min). Gradient elution was carried out using a Gemini NX-C18 analytical column (5 μm, 2.1 mm × 50 mm). The aqueous mobile phase consisted of 5 mm ammonium acetate with 0.1% acetic acid in deionised water, while the organic phase consisted of 0.1% acetic acid in acetonitrile. A Shimadzu HPLC and reverse phase Gemini NX-C18 column coupled to an AB Sciex 3200 Q TRAP MS was operated at unit resolution in the multiple reaction monitoring (MRM) mode. […] The calibration standards ranged from 2 ng/mL to 3,000 ng/mL for RMB005, and 2 ng/mL to 4,000 ng/mL for RMB059, −060 and DQ. Drug concentration versus time plots for each compound were used to determine maximal drug concentration C max, time T max to reach C max, elimination half-life t 1/2 and the area under the concentration-time curve from time zero to infinity, AUC0-inf. From these values the following PK parameters—clearance CL, volume of distribution (Vd) and oral bioavailability (BA) were determined using the non-compartmental analysis Microsoft Excel Add-In PKSolver ([Zhang et al., 2010]).

[3] = Passive permeability, parallel artificial membrane permeation assay (PAMPA); format: in vitro ADME; conditions: donor pH 6.5, acceptor pH 7.4, 4 h, read-out: Permeability (LogPapp) (converted)
Protocol: A parallel artificial membrane permeation assay (PAMPA) was used to assess the passive permeability of compounds with a 96-well MultiScreen filter plate ([…] pore size, Millipore). The filter plate was precoated with 5% hexadecane in hexane. Stock solutions of compounds were diluted to 1 mM in a donor buffer (pH 6.5). Lucifer yellow was added to the apical wells of the precoated MultiScreen plate containing compound donor solution. The donor buffer solutions were spiked with each test compound (1 mM). The acceptor-buffer solution was prepared by adding 10 μL DMSO to 990 μL acceptor buffer (pH 7.4) and 250 μL were added to the basolateral (acceptor) wells. The donor plate was carefully inserted into the acceptor plate and incubated at room temperature for 4 h. After the incubation period, 50 μL of samples from the acceptor plate were transferred to a round bottom 96-well plate, together with 30 μL of donor buffer for matrix matching. Theoretical equilibrium samples for each test compound were prepared by adding 150 μL of donor solutions to 250 μL acceptor solutions and left at room temperature. These theoretical equilibrium samples represent complete transfer of the compound into the donor well. For the theoretical equilibrium samples, 80 μL were added to the analysis plate. Lastly, 160 μL of the internal standard carbamazepine (0.1 μM) was added to all acceptor and equilibrium samples. A portion of the sample containing Lucifer yellow was analyzed on a BioRad iMark^TM Microplate Absorbance Reader (BioRad, Hercules, CA, United States; excitation 490 nm, emission 510–570 nm) to determine that P app was within the acceptable range (<50 nm/s). Samples were analysed using reverse phase Gemini NX-C18 column (5 μM, 2.1 mm × 50 mm) with a Shimadzu HPLC coupled with an AB Sciex 3200 Q TRAP MS). The Papp for each compound was determined using. C=VD × VA/(VD+VA) ×A×t where VA = volume of donor compartment (0.15 cm^3), VD = volume of acceptor compartment (0.25 cm^3), A = accessible filter area (0.24 cm^2) and t = incubation time (14,400 s). […]

- Vd ([2]; 5 mg/kg per table footnote): 6.59 ± 1.83 L/kg
- clearance ([2]; 5 mg/kg per table footnote): 28.5 ± 2.17 mL/min/kg
- half-life ([2]; 5 mg/kg per table footnote (10 mg/kg per method)): 2.62 ± 0.61 h
- Papp at 4 h, 1 mM [3]: 0.501 ×10⁻⁶ cm/s
SMILES: CCCCCCCCCCOc1cc2c(=O)c(C(=O)NCCOCCO)c[nH]c2cc1OCC [RMB005]
- IC50 [1]: 64.8 nM
